Laboratory results published in the supplement of paper PMC10883282.
± gives the standard deviation of the averaged measurements.

What was measured:
Experiment in all cases: relative viability vs DMSO control (72 h) (fraction); higher = more viable cells
HS729 = system: HS729
Procedure, shortened: (§1)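 Plates held 72 h at 37 °C and 5% CO2 contained sarcoma cell lines seeded in 384-well format to reach 80–90% confluence, plus 2.5 µl of serially diluted compound added after 24 h. Source plate concentrations ran from 10 mM to 0.0002 mM, with 0.1% DMSO as vehicle and a 5 µM positive control. Percent growth from ATPLite readings, averaged over up to triplicate wells, gave relative viability. Values were rescaled with 1 as full and 0 as none.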

HT1080 = system: HT1080
Procedure, shortened: as §1

SW684 = system: SW684
Procedure, shortened: as §1

KHOS-NP = system: KHOS-NP
Procedure, shortened: as §1

A204 = system: A204
Procedure, shortened: as §1

VA-ES-BJ = system: VA-ES-BJ
Procedure, shortened: as §1

SW982 = system: SW982
Procedure, shortened: as §1

SK-ES-1 = system: SK-ES-1
Procedure, shortened: as §1

SK-LMS-1 = system: SK-LMS-1
Procedure, shortened: as §1

SW872 = system: SW872
Procedure, shortened: as §1

RD-ES = system: RD-ES
Procedure, shortened: as §1

G401 = system: G401
Procedure, shortened: as §1

CCOc1cc2ncc(C#N)c(Nc3ccc(OCc4ccccn4)c(Cl)c3)c2cc1NC(=O)/C=C/[C@H]1CCCN1C [Pyrotinib]
Details | relative viability
A204, 5.081 pM | 1.04 ± 0.042
A204, 15.24 pM | 1.07 ± 0.064
A204, 45.72 pM | 1.08 ± 0.048
A204, 0.000137174 µM | 1.04 ± 0.025
A204, 0.000411523 µM | 1.06 ± 0.071
A204, 0.00123457 µM | 1.07 ± 0.034
A204, 0.0037037 µM | 1.09 ± 0.069
A204, 0.0111111 µM | 1.11 ± 0.043
A204, 0.0333333 µM | 1.07 ± 0.032
A204, 0.1 µM | 1.1 ± 0.052
A204, 0.3 µM | 1.06 ± 0.013
G401, 5.081 pM | 1.04 ± 0.035
G401, 15.24 pM | 1.03 ± 0.016
G401, 45.72 pM | 1.03 ± 0.041
G401, 0.000137174 µM | 1.05 ± 0.037
G401, 0.000411523 µM | 1.06 ± 0.0079
G401, 0.00123457 µM | 1.02 ± 0.035
G401, 0.0037037 µM | 1.02 ± 0.021
G401, 0.0111111 µM | 1.024 ± 0.0064
G401, 0.0333333 µM | 1.02 ± 0.049
G401, 0.1 µM | 1.02 ± 0.049
G401, 0.3 µM | 1.01 ± 0.013
HS729, 5.081 pM | 0.989 ± 0.038
HS729, 15.24 pM | 0.917 ± 0.048
HS729, 45.72 pM | 0.962 ± 0.06
HS729, 0.000137174 µM | 0.9073 ± 0.0027
HS729, 0.000411523 µM | 0.875 ± 0.048
HS729, 0.00123457 µM | 0.866 ± 0.061
HS729, 0.0037037 µM | 0.857 ± 0.036
HS729, 0.0111111 µM | 0.918 ± 0.043
HS729, 0.0333333 µM | 0.91 ± 0.069
HS729, 0.1 µM | 0.858 ± 0.009
HS729, 0.3 µM | 0.808 ± 0.011
HT1080, 5.081 pM | 1.07 ± 0.012
HT1080, 15.24 pM | 1.13 ± 0.054
HT1080, 45.72 pM | 1.103 ± 0.0081
HT1080, 0.000137174 µM | 1.13 ± 0.014
HT1080, 0.000411523 µM | 1.11 ± 0.019
HT1080, 0.00123457 µM | 1.06 ± 0.027
HT1080, 0.0037037 µM | 1.12 ± 0.012
HT1080, 0.0111111 µM | 1.09 ± 0.021
HT1080, 0.0333333 µM | 1.078 ± 0.01
HT1080, 0.1 µM | 1.07 ± 0.03
HT1080, 0.3 µM | 1.08 ± 0.052
KHOS-NP, 5.081 pM | 1.08 ± 0.029
KHOS-NP, 15.24 pM | 1.12 ± 0.014
KHOS-NP, 45.72 pM | 1.08 ± 0.025
KHOS-NP, 0.000137174 µM | 1.11 ± 0.013
KHOS-NP, 0.000411523 µM | 1.07 ± 0.015
KHOS-NP, 0.00123457 µM | 1.09 ± 0.013
KHOS-NP, 0.0037037 µM | 1.07 ± 0.014
KHOS-NP, 0.0111111 µM | 1.1 ± 0.018
KHOS-NP, 0.0333333 µM | 1.073 ± 0.0071
KHOS-NP, 0.1 µM | 1.09 ± 0.036
KHOS-NP, 0.3 µM | 1.08 ± 0.039
RD-ES, 5.081 pM | 0.971 ± 0.028
RD-ES, 15.24 pM | 0.968 ± 0.014
RD-ES, 45.72 pM | 0.969 ± 0.026
RD-ES, 0.000137174 µM | 0.978 ± 0.032
RD-ES, 0.000411523 µM | 0.983 ± 0.039
RD-ES, 0.00123457 µM | 0.971 ± 0.017
RD-ES, 0.0037037 µM | 0.965 ± 0.022
RD-ES, 0.0111111 µM | 0.9672 ± 0.0053
RD-ES, 0.0333333 µM | 0.953 ± 0.012
RD-ES, 0.1 µM | 0.955 ± 0.047
RD-ES, 0.3 µM | 0.95 ± 0.02
SK-ES-1, 5.081 pM | 0.989 ± 0.035
SK-ES-1, 15.24 pM | 1.02 ± 0.041
SK-ES-1, 45.72 pM | 1.07 ± 0.028
SK-ES-1, 0.000137174 µM | 1.07 ± 0.045
SK-ES-1, 0.000411523 µM | 1.02 ± 0.034
SK-ES-1, 0.00123457 µM | 1.04 ± 0.041
SK-ES-1, 0.0037037 µM | 1.02 ± 0.047
SK-ES-1, 0.0111111 µM | 1.04 ± 0.044
SK-ES-1, 0.0333333 µM | 0.992 ± 0.058
SK-ES-1, 0.1 µM | 0.987 ± 0.042
SK-ES-1, 0.3 µM | 0.8694 ± 0.0074
SK-LMS-1, 5.081 pM | 1.06 ± 0.042
SK-LMS-1, 15.24 pM | 1.06 ± 0.049
SK-LMS-1, 45.72 pM | 1.06 ± 0.037
SK-LMS-1, 0.000137174 µM | 1.07 ± 0.06
SK-LMS-1, 0.000411523 µM | 1.08 ± 0.03
SK-LMS-1, 0.00123457 µM | 1.06 ± 0.036
SK-LMS-1, 0.0037037 µM | 1.09 ± 0.067
SK-LMS-1, 0.0111111 µM | 1.08 ± 0.035
SK-LMS-1, 0.0333333 µM | 1.07 ± 0.026
SK-LMS-1, 0.1 µM | 1.03 ± 0.049
SK-LMS-1, 0.3 µM | 1 ± 0.014
SW684, 5.081 pM | 1.15 ± 0.079
SW684, 15.24 pM | 1.24 ± 0.029
SW684, 45.72 pM | 1.221 ± 0.0063
SW684, 0.000137174 µM | 1.188 ± 0.0051
SW684, 0.000411523 µM | 1.19 ± 0.025
SW684, 0.00123457 µM | 1.17 ± 0.033
SW684, 0.0037037 µM | 1.21 ± 0.048
SW684, 0.0111111 µM | 1.19 ± 0.12
SW684, 0.0333333 µM | 1.15 ± 0.056
SW684, 0.1 µM | 1.17 ± 0.051
SW684, 0.3 µM | 1.1 ± 0.036
SW872, 5.081 pM | 1.05 ± 0.049
SW872, 15.24 pM | 1.06 ± 0.054
SW872, 45.72 pM | 1.06 ± 0.044
SW872, 0.000137174 µM | 1.06 ± 0.032
SW872, 0.000411523 µM | 1.07 ± 0.038
SW872, 0.00123457 µM | 1.05 ± 0.016
SW872, 0.0037037 µM | 0.987 ± 0.077
SW872, 0.0111111 µM | 1.01 ± 0.057
SW872, 0.0333333 µM | 1.04 ± 0.016
SW872, 0.1 µM | 0.987 ± 0.046
SW872, 0.3 µM | 0.913 ± 0.049
SW982, 5.081 pM | 1 ± 0.021
SW982, 15.24 pM | 1.03 ± 0.039
SW982, 45.72 pM | 1.05 ± 0.051
SW982, 0.000137174 µM | 1.09 ± 0.032
SW982, 0.000411523 µM | 1.05 ± 0.025
SW982, 0.00123457 µM | 1.04 ± 0.049
SW982, 0.0037037 µM | 1.03 ± 0.047
SW982, 0.0111111 µM | 1.03 ± 0.032
SW982, 0.0333333 µM | 1.03 ± 0.067
SW982, 0.1 µM | 1.02 ± 0.022
SW982, 0.3 µM | 0.952 ± 0.036
VA-ES-BJ, 5.081 pM | 1.06 ± 0.045
VA-ES-BJ, 15.24 pM | 1.05 ± 0.021
VA-ES-BJ, 45.72 pM | 1.02 ± 0.042
VA-ES-BJ, 0.000137174 µM | 1.04 ± 0.022
VA-ES-BJ, 0.000411523 µM | 0.99 ± 0.0086
VA-ES-BJ, 0.00123457 µM | 0.981 ± 0.038
VA-ES-BJ, 0.0037037 µM | 1.02 ± 0.013
VA-ES-BJ, 0.0111111 µM | 0.983 ± 0.025
VA-ES-BJ, 0.0333333 µM | 0.969 ± 0.042
VA-ES-BJ, 0.1 µM | 0.9689 ± 0.0074
VA-ES-BJ, 0.3 µM | 0.942 ± 0.037
